US7417122B2, “Mammalian galanin receptors” (Schering Corporation, priority 1997, dated 2008)
Non-standard residues stand in square brackets, D forms with d. Residues, ends and D or L forms follow the SMILES beside them.

Molecular target: T1, rat GalR3 receptor (Rattus norvegicus, UniProt O88626)
T1 construct: expressed in transfected cells; host or cells: COS-7 cells (ATCC CRL 1651), transient electroporation with pCR 3.1; membrane preparation
T1 sequence (O88626 1-370 P53Q/R54G/T57Q/P127Q/R137C/A150G/W176L/A183R/T188A/F210L/C272I/R311C): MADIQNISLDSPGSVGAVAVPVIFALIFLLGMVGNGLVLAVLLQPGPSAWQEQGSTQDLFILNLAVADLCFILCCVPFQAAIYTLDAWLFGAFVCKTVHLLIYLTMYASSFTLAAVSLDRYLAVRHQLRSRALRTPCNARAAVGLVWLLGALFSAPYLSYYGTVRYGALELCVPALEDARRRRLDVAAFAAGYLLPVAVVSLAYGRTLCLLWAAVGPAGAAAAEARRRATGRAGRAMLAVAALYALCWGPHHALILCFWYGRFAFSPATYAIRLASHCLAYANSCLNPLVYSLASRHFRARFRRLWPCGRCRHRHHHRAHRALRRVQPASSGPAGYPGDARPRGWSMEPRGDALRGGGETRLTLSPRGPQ
Test: 125I-porcine galanin competition binding to membranes of COS-7 cells transfected with rat GalR3 receptor
Conditions: FIG. 2, 125I-porcine galanin binding to rat GalR3 membranes
Protocol: Transfection was carried out as follows. Confluent COS-7 cells (ATCC CRL 1651) grown in DMEVI supplemented with 10% fetal calfserum (FCS) with 100 units/ml penicillin and 100 μg/ml streptomycin were split 1:6 into 150 mm dishes (Nunc) three days prior to transfection. On the day of transfection, the cells were approximately 90% confluent and trypsinized off plates and washed two times with PBS without Mg^++ and Ca^++. The cells were resuspended in Krebs Ringer's buffer at a density of approximately 1.2×10^7 cells/ml. […]
To each plate, 5 ml of 5 mM Hepes buffer (pH 7.4), 0.1 mM PMSF, and 0.1 mg/ml bacitracin were added and incubated at room temperature for 15 minutes. […] Protein concentrations were determined using a […] (bicinchoninic acid) method (Pierce, Rockford, Ill.).
Binding of ^125I-porcine-galanin to the membrane preparations was performed in a buffer containing 25 mM Tris-Cl (pH7.4), 1% bovine serim albumin (w/v), 0.1% bacitracin, 2 μg/ml leupeptin and 10 mM MgCl2. […] All data were analyzed using non-linear regression software (Prism, GraphPad, San Diego, Calif.), and the Ki was calculated using the method of Cheng and Prusoff [Biochem. Pharmacol. 22:3099-3108 (1973)].

Row | Structure (SMILES) | competitive inhibition of the labeled galanin
1 | CC(C)C[C@H](NC(=O)[C@H](CC(C)C)NC(=O)[C@@H](Cc1c[nH]c2ccccc12)NC(=O)[C@H](Cc1ccccc1)NC(=O)[C@@H](Cc1c[nH]c2ccccc12)NC(=O)[C@H](CCC(N)=O)NC(=O)[C@H](CCC(N)=O)NC(=O)[C@@H]1CCCN1C(=O)[C@H](CCCCN)NC(=O)[C@@H]1CCCN1C(=O)[C@@H](CCCNC(=N)N)NC(=O)[C@@H]1CCCN1C(=O)CNC(=O)[C@H](CC(C)C)NC(=O)[C@H](CC(C)C)NC(=O)[C@H](Cc1ccc(O)cc1)NC(=O)CNC(=O)[C@H](C)NC(=O)[C@H](CO)NC(=O)[C@H](CC(N)=O)NC(=O)[C@H](CC(C)C)NC(=O)[C@@H](NC(=O)[C@H](Cc1c[nH]c2ccccc12)NC(=O)CN)[C@@H](C)O)C(N)=O [chimeric galanin peptide C7] (H-GWTLNSAGYLLGP[dR]PKPQQ[dW]F[dW]LL-NH2; N-terminus and C-terminus assumed) | competitive inhibitors
2 | CC[C@H](C)[C@H](NC(=O)[C@H](C)NC(=O)[C@H](Cc1c[nH]cn1)NC(=O)[C@@H]1CCCN1C(=O)CNC(=O)[C@H](CC(C)C)NC(=O)[C@H](CC(C)C)NC(=O)[C@H](Cc1ccc(O)cc1)NC(=O)CNC(=O)[C@H](C)NC(=O)[C@H](CO)NC(=O)[C@H](CC(N)=O)NC(=O)[C@H](CC(C)C)NC(=O)[C@@H](NC(=O)[C@@H](N)Cc1c[nH]c2ccccc12)[C@@H](C)O)C(=O)N[C@@H](CC(=O)O)C(=O)N[C@@H](CC(N)=O)C(=O)N[C@@H](Cc1c[nH]cn1)C(=O)N[C@@H](CCCNC(=N)N)C(=O)N[C@@H](CO)C(=O)N[C@@H](Cc1ccccc1)C(=O)N[C@@H](CO)C(=O)N[C@@H](CC(=O)O)C(=O)N[C@@H](CCCCN)C(=O)N[C@@H](Cc1c[nH]cn1)C(=O)NCC(=O)N[C@@H](CC(C)C)C(=O)N[C@H](C(N)=O)[C@@H](C)O [galanin(2-29)] | competitive inhibitors
